Source: patent publication US20260355147A1, “COMPOSITIONS COMPRISING TRIGONELLINE AND A UROLITHIN” (Amazentis SA, priority 2023, published 2026)

Assays:
[1] = system: HSMM human primary skeletal muscle myoblasts; experiment: Mitochondrial respiration (oxygen consumption rate) in human primary skeletal muscle myoblasts HSMM (Seahorse XF96); assay type: cell-based; details: 24 hours, normalized over cellular DNA content
Description: Cells were treated as indicated with Urolithin A (UA) 6.25 uM and trigonelline (Trig) 500 uM, alone or in combination. DMSO 0.1% was used as control. Data are expressed as mean+/−SD. One-Way ANOVA, * p.val.<0.05.
A combined treatment of urolithin A and trigonelline was performed and mitochondrial respiration was measured in human primary skeletal muscle cells.
Mitochondrial respiration was measured as oxygen consumption rate on HSMM (LZ-CC-2580, Lonza), human primary skeletal muscle myoblasts was measured with a Seahorse XF96 extracellular flux analyzer. HSMMs were seeded at 3,500 cells/well in an XF96 cell culture microplate and cultured at 37 °C in a humidified atmosphere of 5% C02 in SKM-M Growth medium (AMSbio). […] Oxygen consumption rate was measured in Krebs Cycle medium (135 mM NaCl, KCL 3.6 mM, 0.5 mM NaH2PO4, 0.5 mM MgSO4, 10 mM HEPES, 5 mM NaHCO3) supplemented with 10 mM Glucose, 10 mM pyruvate and 2 mM Glutamine. Maximal respiration was monitored by injection of 6 μM FCCP in the cartridge. To normalize for differences in cell number across well, cellular DNA content was measured in the same microplate using the CyQuant NF kit (Thermofisher, C35006), following the manufacturer's instructions. Normalized mitochondrial respiration was then calculated as ratio between oxygen consumption rate and DNA content and expressed as fold change over the DMSO of the basal condition.

C2C12 muscle cell line = details: Ryu, D. et al. Nature Medicine 2016, 22, 879; cited from earlier work
C2C12 myotubes = experiment: Mitochondrial respiration in C2C12 myotubes (Seahorse XF96, fatty acid oxidation analysis); assay type: cell-based, Mouse; details: 50 uM, 24 hours (FIG. 1)
Description: A combined treatment of urolithin A and trigonelline was performed and mitochondrial respiration was measured in rodent skeletal muscle cells.
Fatty acid oxidation analysis on C2C12 myotubes was measured with a Seahorse XF96 extracellular flux analyzer. C2C12s were seeded at 8,000 cells/well in an XF96 cell culture microplate. Once cells reached confluence, they were differentiated with DMEM (Gibco, 31966047) supplemented with 2% Horse serum, 1% PenStrep and 1% Hepes for 5 days. Cells were treated with UA 50 uM and Trigonelline 50 uM (Sigma, T5509) for 24 hours in substrate-limited media (Gibco, A1443001) supplemented with 0.5 mM glucose, 1 mM glutamine, 1% Oleic acid and 0.5 mM L-Carnitine. Maximal respiration was monitored by injection of 3 μM FCCP in the cartridge. Prior to the assay, cells were incubated in a Fatty acid oxidation medium (111 mM NaCl, 4.7 mM KCl, 1.25 mM CaCl2, 2 mM MgSO4, 1.2 mM NaH2PO4, 5 mM L-Carnitine, 5 mM Hepes, 2.5 mM Glucose) for 20 min, solution must be adjusted to pH 7.4 at 37 °C.

human cells = details: at this dose (50 uM); FIG. 1 of US 2022/0241259 A1; cited from earlier work
rodent tissues = details: in vivo; cited from earlier work
C. elegans = details: in vivo; cited from earlier work
muscle mass = details: in vivo; cited from earlier work
HSMM myotubes = details: only at 1000 uM, 72 h, with simultaneous blocking of NAD+ salvage pathway with FK866; cited from earlier work
skeletal muscle cells = details: cited from earlier work

SMILES | mitochondrial respiration ([1]; urolithin A alone, 6.25 uM) | mitochondrial respiration (C2C12 muscle cell line) | mitochondrial respiration (C2C12 myotubes; urolithin A alone) | mitochondrial respiration ([1]; trigonelline alone, 500 uM) | biological effect on NAD production in human cells (human cells) | NAD^+ levels in rodent tissues (rodent tissues) | lifespan in C. elegans models (C. elegans) | muscle mass in rodents (muscle mass) | mitochondrial respiration in HSMM myotubes (HSMM myotubes) | NAD^+ levels in skeletal muscle cells (skeletal muscle cells) | mitochondrial respiration (C2C12 myotubes; trigonelline alone)
O=c1oc2cc(O)ccc2c2ccc(O)cc12 [Urolithin A, urolithin A] | induced mitochondrial respiration | induced mitochondrial respiration as shown previously in the C2C12 muscle cell line | induced mitochondrial respiration | – | – | – | – | – | – | – | –
C[n+]1cccc(C(=O)[O-])c1 [trigonelline] | – | – | – | Mitochondrial respiration was also increased | not shown to have a significant biological effect on NAD production | help to increase NAD^+ levels | increase lifespan | induce muscle mass | improvement in mitochondrial respiration | help to increase NAD^+ levels | Mitochondrial respiration was also increased
